How the values were obtained:
[1] = biological target: T1, L-type amino acid transporter 1 (LAT1) (Homo sapiens, UniProt Q01650); experiment: inhibition of pregabalin uptake in hCMEC/D3 cells at […] (LAT1 role supported by siRNA); format: cell-based; set-up: gene SLC7A5; endogenous LAT1 in hCMEC/D3 cells; details: read-out: Uptake (% of Control)
[2] = biological target: T1, L-type amino acid transporter 1 (LAT1); experiment: LC-MS/MS uptake in LAT1-overexpressing HEK293 cells vs mock; inhibition of […]L-leucine uptake at […]; format: cell-based; set-up: gene SLC7A5; entire coding region for human SLC7A5, expressed in HEK293 cells; with 4F2 heavy chain (4F2hc), endogenous

T1 sequence (Q01650 whole entry): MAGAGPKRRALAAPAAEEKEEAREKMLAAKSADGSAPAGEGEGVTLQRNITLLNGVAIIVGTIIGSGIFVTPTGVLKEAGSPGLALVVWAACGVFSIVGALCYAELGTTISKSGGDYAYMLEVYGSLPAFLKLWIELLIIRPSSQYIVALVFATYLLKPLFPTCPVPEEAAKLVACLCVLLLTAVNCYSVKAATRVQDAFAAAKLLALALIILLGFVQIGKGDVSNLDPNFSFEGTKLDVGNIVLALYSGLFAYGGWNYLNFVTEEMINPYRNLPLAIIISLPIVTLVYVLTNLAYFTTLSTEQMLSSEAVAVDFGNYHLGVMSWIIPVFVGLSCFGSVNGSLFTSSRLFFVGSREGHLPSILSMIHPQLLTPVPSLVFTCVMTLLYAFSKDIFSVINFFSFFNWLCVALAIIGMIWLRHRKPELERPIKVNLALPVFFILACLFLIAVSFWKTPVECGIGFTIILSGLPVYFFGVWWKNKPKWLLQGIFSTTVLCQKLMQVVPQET
T1 sequence (P08195 103-630 partner): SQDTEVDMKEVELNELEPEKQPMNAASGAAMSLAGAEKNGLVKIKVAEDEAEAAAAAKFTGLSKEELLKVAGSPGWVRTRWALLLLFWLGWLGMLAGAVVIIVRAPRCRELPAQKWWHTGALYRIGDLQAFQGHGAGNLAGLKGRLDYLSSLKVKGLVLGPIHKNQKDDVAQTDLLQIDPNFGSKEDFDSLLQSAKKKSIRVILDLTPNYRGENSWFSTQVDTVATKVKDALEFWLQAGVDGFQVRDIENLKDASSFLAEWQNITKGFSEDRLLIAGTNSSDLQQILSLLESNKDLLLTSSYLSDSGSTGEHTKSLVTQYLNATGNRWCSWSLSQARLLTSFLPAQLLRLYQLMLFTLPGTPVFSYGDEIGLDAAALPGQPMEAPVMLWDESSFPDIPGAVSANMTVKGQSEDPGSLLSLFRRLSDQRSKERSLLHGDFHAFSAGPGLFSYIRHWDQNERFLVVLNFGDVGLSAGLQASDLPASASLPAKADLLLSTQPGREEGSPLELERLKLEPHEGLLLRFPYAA

In the case of Nc1cc(COc2c(Cl)cc(C[C@H](N)C(=O)O)cc2Cl)c2oc(-c3ccccc3)nc2c1 [JPH203], the remaining activity at 10 µM [1] is reported as < 6.53%.
CC(C)C[C@H](CN)CC(=O)O [pregabalin] showed a Km [2] of 288 µM.
